Test results: publication PMC12332266 (Frontiers in Pharmacology, 2025)
Read-outs that look alike come from different tables or passages of the source.

Assays:
[1] = tested on: hiPSC-CM (iCell Cardiomyocytes^2); assay: Intracellular miRNA expression by RT-qPCR in hiPSC-CM pellets after 72-hour treatment; settings: for fold induction at 0.3 µM / fold induction at 1 µM / fold induction at 3 µM / fold induction at 10 µM: Homo sapiens, 72 h
Method in brief: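 After 72-hour treatment and RTCA CardioECR assessment, total RNA from hiPSC-CM pellets was reverse transcribed, pre-amplified and quantified by TaqMan RT-qPCR against a 17-miRNA panel. Triplicates were pooled, so no statistical analysis was performed.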

[2] = ref extensive literature search, cited from earlier work
[3] = tested on: hiPSC-CM (iCell Cardiomyocytes^2); assay: RTCA CardioECR assessment (impedance and electrophysiology parameters)
Method in brief: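 iCell^2 cardiomyocytes on fibronectin-coated ePlates monitored continuously by impedance for cell index, beating rate and amplitude. Field potential duration and spike amplitude were recorded from day 4–6 after monolayer formation. Data were double-normalized to DMSO control and baseline, with variability given as SD.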

[4] = read-out: hsa-miR-7-5p fold change
[5] = read-out: hsa-miR-29a-5p fold change
[6] = read-out: hsa-miR-96-5p fold change
[7] = read-out: hsa-miR-126-3p fold change
[8] = read-out: hsa-miR-146b-5p fold change
[9] = read-out: hsa-miR-182-5p fold change
[10] = read-out: hsa-miR-185-3p fold change
[11] = read-out: hsa-miR-187-3p fold change
[12] = read-out: hsa-miR-208b-3p fold change

For `O=P1(N(CCCl)CCCl)NCCCO1` (stereo not shown) [Cyclophosphamide], the “miRNAs hiPSC-CM pellet, MEC overall” value [1] is given as 3 µM (96-5p, 182-5p, 185-3p, 208b-3p), the “miRNAs upregulated at the MEC overall (hiPSC-CM pellet)” value (from here on “miRNAs upregulated at the MEC overall”) [1] is given as 3 µM (96-5p, 182-5p, 185-3p, 208b-3p) and the Cmax total ([2]; Supplementary Table 1) is given as 126 µM. For the same compound, the Cmax total ([2]; Table 1) was 126.00 µM, the “Beating rate (BR) MEC” value ([3]; hiPSC-CM, 72-hour treatment, lowest concentration causing at least 20% change from baseline) was “ND (ND – not detected, magnitude of change was lower than 20%)” and the “RTCA, MEC (BR)” value ([3]; hiPSC-CM, change ≥20%, Table 2) was “ND (ND – not detected, magnitude of change was lower than 20% for CI/BR)”. The “RTCA, MEC (CI)” value ([3]; hiPSC-CM, change ≥20%, Table 2) was “ND (ND – not detected, magnitude of change was lower than 20% for CI/BR)”.

In the case of `COc1cccc2c1C(=O)c1c(O)c3c(c(O)c1C2=O)C[C@@](O)(C(=O)CO)C[C@@H]3O[C@H]1C[C@H](N)[C@@H](O)[C@H](C)O1` [Epirubicin], the “miRNAs hiPSC-CM pellet, MEC overall” value [1] is listed as 0.3 µM, the “miRNAs upregulated at the MEC overall” value [1] is listed as “miR-7-5p, miR-29a-5p, miR-126-3p, miR-146b-5p, miR-182-5p, miR-184, miR-185-3p, miR-187-3p, miR-208b-3p, miR-365a-5p” and the Cmax total ([2]; Supplementary Table 1) is listed as 16.6 µM. For the same compound, the Cmax total ([2]; Table 1) was 16.60 µM, the “RTCA, MEC (CI)” value ([3]; hiPSC-CM, change ≥20%, Table 2) was 0.3 µM (CI, BR (Q)) and the “Beating Rate MEC” value ([3]; human, 72 h) was 0.3 µM. For the same compound, the “Beating rate (BR) MEC” value ([3]; human, 72 h) was 0.3 µM, the “Contractility Amplitude MEC” value ([3]; human, 72 h) was 0.3 µM and the “Field Potential Duration MEC” value ([3]; human, 72 h) was 0.3 µM. The “RTCA, MEC (BR)” value ([3]; human, 72 h) was 0.3 µM (CI, BR (Q)) and the “Spike Amplitude (SA) MEC” value ([3]; human, 72 h) was 0.3 µM.

For `CCCN1C[C@H](CSC)C[C@@H]2c3cccc4[nH]cc(c34)C[C@H]21` [Pergolide], the “miRNAs hiPSC-CM pellet, MEC overall” value [1] was 0.3 µM, the “miRNAs upregulated at the MEC overall” value [1] was “miR-96-5p, miR-146b-5p” and the fold induction at 0.3 µM [1, 4] was 1. For the same compound, the fold induction at 1 µM [1, 4] was 0.7, the fold induction at 3 µM [1, 4] was 1.4 and the fold induction at 10 µM [1, 4] was 1. For the same compound, the fold induction at 0.3 µM [1, 5] was 1, the fold induction at 1 µM [1, 5] was 0.2 and the fold induction at 0.3 µM [1, 6] was 2.8. It also gave a fold induction at 1 µM [1, 6] of 5.6, a fold induction at 0.3 µM [1, 7] of 1.2 and a fold induction at 1 µM [1, 7] of 1.1. It also gave a fold induction at 3 µM [1, 7] of 1.1, a fold induction at 10 µM [1, 7] of 2 and a fold induction at 0.3 µM [1, 8] of 4.3. The fold induction at 1 µM [1, 8] was 6.1, the fold induction at 3 µM [1, 8] was 20.8 and the fold induction at 10 µM [1, 8] was 1.1. It also gave a fold induction at 0.3 µM [1, 9] of 0.5, a fold induction at 1 µM [1, 9] of 2.2 and a fold induction at 3 µM [1, 9] of 0.9. For the same compound, the fold induction at 10 µM [1, 9] was 2.2, the fold induction at 0.3 µM [1, 10] was 1.1 and the fold induction at 1 µM [1, 10] was 5.6. The fold induction at 3 µM [1, 10] was 7.2, the fold induction at 10 µM [1, 10] was 1.9 and the fold induction at 0.3 µM [1, 11] was 0.6. The fold induction at 1 µM [1, 11] was 0.9, the fold induction at 3 µM [1, 11] was 21.8 and the fold induction at 10 µM [1, 11] was 0.6. It also gave a fold induction at 0.3 µM [1, 12] of 1.5, a fold induction at 1 µM [1, 12] of 2.2 and a fold induction at 3 µM [1, 12] of 2.6. It also gave a fold induction at 10 µM [1, 12] of 2.5, a fold induction at 1 µM ([1]; read-out: hsa-miR-365a-5p fold change) of 5.2 and a fold induction at 0.3 µM ([1]; read-out: hsa-miR-[…] change) of 0.9. For the same compound, the fold induction at 1 µM ([1]; read-out: hsa-miR-[…] change) was 1.1, the fold induction at 3 µM ([1]; read-out: hsa-miR-[…] change) was 1.7 and the fold induction at 10 µM ([1]; read-out: hsa-miR-[…] change) was 1.4. For the same compound, the Cmax total ([2]; Supplementary Table 1) was 12.7 µM, the Cmax total ([2]; Table 1) was 12.7 µM and the “Contractility Amplitude MEC” value ([3]; human, 72 h) was 0.0003 µM. The “Spike Amplitude (SA) MEC” value ([3]; human, 72 h) was 10 µM.
